{"source": "patent US8097585B2", "about": "“Methods of treating inflammation by administration of heme oxygenase-1 and products of heme degradation” (priority 2002, dated 2012)", "key": {"[1]": {"test_system": "iNOS", "assay": "Real time RT-PCR of graft muscularis after SITx, iNOS", "assay_type": "in vivo, LEW rats", "description": "(§1) Small Intestinal Transplantation. Orthotopic small intestinal transplantation (SITx) was performed in syngeneic Lewis rats. SITx with caval drainage was performed using a previously described procedure (Murase et al., in Handbook of Animal Models in Transplantation Research, Cramer et al., Eds. CRC Press, Boca Raton, Fla., pp. 203-213 (1994)). […] The graft was perfused via the aortic segment with 5 ml chilled Ringer's lactate solution, and the intestinal lumen was irrigated with 20 ml of cold saline solution containing 0.5% neomycin-sulfate (Sigma, St. Louis, Mo.). […]\n(§2) SYBR green real time RT-PCR. The effects of administration of biliverdin on transplant-induced pro-inflammatory and anti-inflammatory gene expression were assessed in muscularis extracts by RT-PCR Biliverdin ([…], i.p.) was administered to both the donor and recipient three hours preoperatively. […] Equal aliquots (5 μg) of total RNA from each sample were quantified by spectrophotometry (wavelength […]) and aliquoted at a concentration of 40 ng/μl. Peak mRNA expression was quantified in duplicate by SYBR Green two-step, real-time RT-PCR. […] Real-time PCR data were plotted as the ΔRn fluorescence signal versus the cycle number. […] Quantification of mRNA expression was normalized to GAPDH and calculated relative to control using the comparative CT method (Schmittgen et al., J. Biochem. Biophys. Methods 46(1-2):69-8, 2000). […]"}, "[2]": {"test_system": "B6AF1 splenocytes or purified T cells", "assay": "Con A and anti-CD3 mAb mediated proliferation assay", "assay_type": "cell-based, mouse", "description": "Con A and anti-CD3 mAb mediated proliferation assay. B6AF1 splenocytes or purified T cells were prepared according to the herein-described method and used as responder cells. Responders (2.5×10^5/well) were stimulated with either Con A (1 μg/ml) or anti-CD3 mAb (1 μg/ml) and cultured in a 96 well round bottom plates. Purified T cells (5×10^4/well) were cultured in anti-CD3 mAb (10 μg/ml) coated 96 well flat bottom plates in the presence of anti-CD28 mAb (1 μg/ml). Cells were cultured with or without biliverdin (at various concentrations) for 48 hours at 37° C., 95% air with 5% CO2. They were pulsed with ^3H-thymidine (1 μCi/well) 16 hours before termination of cell culture and ^3H-thymidine incorporation was measured by using a β-counter. These proliferation assays were performed in triplicate and were repeated 3 times."}, "[3]": {"test_system": "LPS-induced lung inflammation", "assay": "Endotoxic shock (LPS) model, bronchoalveolar lavage", "assay_type": "in vivo, Sprague-Dawley rats", "settings": "BAL 24 hours after LPS", "description": "Treatment Protocol. Endotoxin (lipopolysaccharide/LPS; Sigma; E. coli serotype 0128:B7; 3 mg/kg, i.v.) was administered to male Sprague-Dawley, resulting in an acute non-lethal inflammation. In rats, a sublethal dose of LPS results in a moderate lung inflammation characterized by neutrophil accumulation and protein accumulation in the airspace, both markers of lung inflammation. The pro-inflammatory cytokine TNF-alpha increases very rapidly in the serum, peaking by 60-90 minutes. This is followed by increases in IL-10, a prototypical anti-inflammatory cytokine that peaks 8-12 hr later.\nAdministration of Biliverdin. Biliverdin (Frontier Scientific: prepared in PBS following solubilization in NaOH) was administered i.p. at […] 17 hours prior to, one hour prior to, and eight hours after LPS administration.\nBronchoalveolar Lavage. A bronchoalveolar lavage (BAL) was performed 24 hours after LPS administration. Serum cytokines were measured using commercially available ELISA kits (R&D Systems Inc.) per the manufacturer's instructions. Total protein was determined via a standard Bradford assay based on a standard curve. […] Total cell count was determined as well as differential analysis of cell type and morphology via Diff-Quik® Fixative (American Scientific Products) staining of a sample of the lavagate."}, "[4]": {"test_system": "COX-2", "assay": "Real time RT-PCR of graft muscularis after SITx, COX-2", "assay_type": "in vivo, LEW rats", "settings": "BV treated rats", "description": "as §1, §2"}}, "note": "Counter-ions that a name gives are not always drawn.", "data": [{"smiles": "C=CC1=C(C)/C(=C/C2=NC(=C\\c3[nH]c(/C=C4\\NC(=O)C(C)=C4C=C)c(C)c3CCC(=O)O)/C(CCC(=O)O)=C2C)NC1=O", "note": "[biliverdin, biliverdin dihydrochloride]", "values": [{"measurement": "reduction of mean relative iNOS mRNA expression", "setting": "[1]; BV treated rats, graft muscularis", "result": "approximately 50%"}, {"measurement": "mRNA expression of iNOS or COX-2", "setting": "[1]; BV treatment of unoperated control animals", "result": "did not alter"}, {"measurement": "proliferation of purified T cells", "setting": "[2]; anti-CD3 mAb plus anti-CD28 mAb co-stimulation", "result": "suppressed"}, {"measurement": "ConA or anti-CD3 mAb driven T cell proliferation", "setting": "[2]; biliverdin 50 μM", "result": "significant suppressive effect"}, {"measurement": "ConA or anti-CD3 mAb driven T cell proliferation", "setting": "[2]; biliverdin 100 μM", "result": "significant suppressive effect"}, {"measurement": "neutrophil accumulation in the airspace", "setting": "[3]", "result": "reduced"}, {"measurement": "protein accumulation in the airspace", "setting": "[3]", "result": "reduced"}, {"measurement": "reduction of mean relative COX-2 mRNA expression", "setting": "[4]", "result": "approximately 50%"}]}]}
